≈ marks a conversion by molar mass, not a printed value. Where “and” joins values, the source holds several entries; their conditions need not be identical. Identical values can stand only once. Each block holds one molecule with its values, some of them ahead of it.
Assays:
Experiment in all cases: ≥ marks a high value that may be exact or a test limit, other limits are often not marked, values filed in µg/mL are converted to µM
[1] = test system: Staphylococcus capitis 1
[2] = test system: Yersinia pseudotuberculosis YPIII
[3] = test system: Staphylococcus aureus ATCC 29213
[4] = test system: Enterococcus faecalis
[5] = test system: Staphylococcus epidermidis ATCC 12228
[6] = test system: Staphylococcus aureus Cowan 1
[7] = test system: Corynebacterium jeikeium ATCC BAA-949
[8] = test system: Escherichia coli O111:B4
[9] = test system: Pseudomonas aeruginosa ATCC 27853
[10] = test system: Escherichia coli D21
[11] = test system: Escherichia coli ATCC 25922
[12] = test system: Acinetobacter baumannii ATCC 19606
[13] = test system: Acinetobacter baumannii
[14] = test system: Serratia marcescens ATCC 8100
[15] = test system: Staphylococcus aureus
[16] = test system: Escherichia coli ML-35
[17] = test system: Candida parapsilosis
[18] = test system: Staphylococcus aureus ATCC 25923
[19] = test system: Streptococcus equinus
[20] = test system: Bacillus megaterium Bm11
[21] = test system: Salmonella enterica subsp. enterica serovar Typhimurium ATCC 14028
[22] = test system: Rhodotorula mucilaginosa
[23] = test system: Salmonella enterica subsp. enterica serovar Enteritidis
[24] = test system: Klebsiella pneumoniae
[25] = test system: Candida tropicalis
[26] = test system: Klebsiella pneumoniae ATCC 13883
[27] = test system: Candida albicans
[28] = test system: Trypanosoma cruzi
[29] = test system: Escherichia coli KCCM 11569
[30] = test system: Bacillus subtilis KCCM 11495
[31] = test system: Staphylococcus saprophyticus
[32] = test system: Pseudomonas aeruginosa KACC 10259
[33] = test system: Enterobacter cloacae ATCC 23355
[34] = test system: Staphylococcus aureus KACC 10196
[35] = test system: Bacillus subtilis KACC 10196
[36] = test system: Staphylococcus aureus ATCC 6535
[37] = test system: Pseudomonas aeruginosa ATCC 9027
[38] = test system: Escherichia coli KACC 1039
[39] = test system: Enterococcus faecalis KACC 11304
[40] = test system: Staphylococcus aureus USA 300
[41] = test system: Staphylococcus aureus USA 100
[42] = test system: Escherichia coli CCT 1371
[43] = test system: Candida albicans KACC 30071
[44] = test system: Klebsiella pneumoniae KCTC 2242
[45] = test system: Bacillus subtilis CCT 2471
[46] = test system: Candida albicans ATCC 90028
[47] = test system: Bacillus subtilis DSM 402
[48] = test system: Escherichia coli DSM 30083

- MIC [28]: 14.2 µM (≈ 30 µg/mL)
Compound: CC[C@H](C)[C@H](NC(=O)[C@H](C)NC(=O)[C@H](Cc1cnc[nH]1)NC(=O)[C@@H]1CCCN1C(=O)[C@@H](NC(=O)[C@H](CC(C)C)NC(=O)[C@H](CO)NC(=O)[C@H](CC(C)C)NC(=O)[C@@H](N)Cc1ccccc1)[C@@H](C)CC)C(=O)N[C@@H](CC(N)=O)C(=O)N[C@@H](C)C(=O)N[C@H](C(=O)N[C@@H](CO)C(=O)N[C@H](C(=O)N[C@@H](CC(C)C)C(=O)N[C@H](C(=O)N[C@@H](Cc1cnc[nH]1)C(=O)N[C@@H](Cc1cnc[nH]1)C(=O)N[C@@H](CO)C(=O)NCC(N)=O)C(C)C)[C@@H](C)O)C(C)C [FLSLIPHAINAVSTLVHHSG]

- MIC [29]: ≥ 40.3 µM
- MIC [30]: ≥ 40.3 µM
Compound: CC(C)C[C@H](NC(=O)CNC(=O)[C@H](Cc1cnc[nH]1)NC(=O)[C@H](Cc1cnc[nH]1)NC(=O)[C@H](CC(C)C)NC(=O)[C@H](CC(C)C)NC(=O)[C@H](C)NC(=O)[C@H](CC(N)=O)NC(=O)[C@H](CC(C)C)NC(=O)[C@@H](N)Cc1c[nH]c2ccccc12)C(=O)N[C@@H](CC(N)=O)C(=O)N[C@@H](CS)C(=O)N[C@@H](C)C(=O)N[C@@H](CCCCN)C(N)=O [WLNALLHHGLNCAK]

- MIC [31]: 15.7 µM (≈ 15 µg/mL)
- MIC [32]: 8 µM (≈ 7.63 µg/mL)
- MIC [33]: 10.5 µM (≈ 9.99 µg/mL)
- MIC [34]: 16 µM (≈ 15.3 µg/mL)
- MIC [35]: 4 µM (≈ 3.81 µg/mL)
- MIC [36]: 10.5 µM (≈ 9.99 µg/mL)
- MIC [37]: 50 µM (≈ 47.7 µg/mL)
- MIC [38]: 8 µM (≈ 7.63 µg/mL)
- MIC [39]: 16 µM (≈ 15.3 µg/mL)
- MIC [40]: ≥ 50 µM
- MIC [41]: ≥ 50 µM
- MIC [42]: 2.62 µM (≈ 2.5 µg/mL)
- MIC [43]: 16 µM (≈ 15.3 µg/mL)
- MIC [9]: 10.5 µM (≈ 9.99 µg/mL)
- MIC [44]: 8 µM (≈ 7.63 µg/mL)
- MIC [45]: 10.5 µM (≈ 9.99 µg/mL)
- MIC [46]: ≥ 50 µM
- MIC [26]: 10.5 µM (≈ 9.99 µg/mL)
- MIC [27]: 2.62 µM (≈ 2.5 µg/mL)
Compound: CC[C@H](C)[C@H](NC(=O)[C@H](CO)NC(=O)[C@@H](NC(=O)[C@H](CCCCN)NC(=O)[C@H](Cc1ccccc1)NC(=O)[C@@H]1CCCN1)[C@@H](C)CC)C(=O)N[C@@H](Cc1cnc[nH]1)C(=O)N[C@@H](CC(C)C)C(N)=O [PFKISIHL]

The remaining lines, values behind:

Compound: CC[C@H](C)[C@H](N)C(=O)N[C@H](C(=O)NCC(=O)N1CCC[C@H]1C(=O)N[C@H](C(=O)N[C@@H](CC(C)C)C(=O)NCC(=O)N[C@@H](CC(C)C)C(=O)N[C@H](C(=O)NCC(=O)N[C@@H](CO)C(=O)N[C@@H](C)C(=O)N[C@@H](CC(C)C)C(=O)NCC(=O)NCC(=O)N[C@@H](CC(C)C)C(=O)N[C@@H](CC(C)C)C(=O)N[C@@H](CCCCN)C(=O)N[C@@H](CCCCN)C(=O)N[C@H](C(N)=O)[C@@H](C)CC)C(C)C)C(C)C)[C@@H](C)CC [IIGPVLGLVGSALGGLLKKI]
- MIC [1]: 12.5 µM (≈ 24 µg/mL)
- MIC [2]: 12.5 µM (≈ 24 µg/mL)
- MIC [3]: 12.5 µM (≈ 24 µg/mL)
- MIC [4]: ≥ 50 µM
- MIC [5]: 12.5 µM (≈ 24 µg/mL)
- MIC [6]: 12.5 µM (≈ 24 µg/mL)
- MIC [7]: 8 µM (≈ 15.3 µg/mL)
- MIC [8]: ≥ 50 µM
- MIC [9]: > 50 µM
- MIC [10]: ≥ 50 µM
- MIC [11]: > 50 µM
- MIC [12]: 12.5 µM (≈ 24 µg/mL)
- MIC [13]: ≥ 50 µM

Compound: CC(C)C[C@H](NC(=O)[C@H](CCC(N)=O)NC(=O)[C@H](CCC(=O)O)NC(=O)[C@H](CC(C)C)NC(=O)[C@H](Cc1ccccc1)NC(=O)[C@H](CCC(=O)O)NC(=O)[C@H](CCC(N)=O)NC(=O)[C@H](Cc1ccccc1)NC(=O)[C@H](CO)NC(=O)[C@H](CC(C)C)NC(=O)[C@@H]1CCCN1C(=O)[C@H](Cc1ccccc1)NC(=O)[C@H](Cc1c[nH]c2ccccc12)NC(=O)[C@H](Cc1cnc[nH]1)NC(=O)[C@H](CCCN=C(N)N)NC(=O)[C@H](CCCN=C(N)N)NC(=O)[C@@H](N)CCCCN)C(=O)N[C@@H](CCCN=C(N)N)C(=O)N[C@@H](CCCN=C(N)N)C(=O)N[C@@H](Cc1ccccc1)C(=O)N[C@@H](CCCN=C(N)N)C(=O)N[C@@H](CC(=O)O)C(=O)N[C@@H](CCC(N)=O)C(=O)N[C@@H](CC(C)C)C(=O)N1CCC[C@H]1C(=O)N[C@@H](Cc1ccccc1)C(=O)N1CCC[C@H]1C(=O)O [KRRHWFPLSFQEFLEQLRRFRDQLPFP]
- MIC [14]: 7.97 µM (≈ 28.5 µg/mL)
- MIC [15]: 31.9 µM (≈ 114 µg/mL)
- MIC [16]: 3.92 µM (≈ 14 µg/mL)
- MIC [17]: 31.9 µM (≈ 114 µg/mL)
- MIC [18]: 15.9 µM (≈ 57 µg/mL)
- MIC [5]: 7.97 µM (≈ 28.5 µg/mL)
- MIC [19]: 31.9 µM (≈ 114 µg/mL)
- MIC [20]: 3.92 µM (≈ 14 µg/mL)
- MIC [21]: 31.9 µM (≈ 114 µg/mL)
- MIC [22]: 31.9 µM and 15.9 µM
- MIC [23]: 31.9 µM (≈ 114 µg/mL)
- MIC [9]: > 31.9 µM
- MIC [24]: 31.9 µM (≈ 114 µg/mL)
- MIC [25]: 31.9 µM (≈ 114 µg/mL)
- MIC [26]: 7.97 µM (≈ 28.5 µg/mL)
- MIC [11]: 3.92 µM (≈ 14 µg/mL)
- MIC [27]: > 31.9 µM

Compound: CC(=O)N[C@@H](CCCN=C(N)N)C(=O)N[C@@H](Cc1c[nH]c2ccccc12)C(=O)N[C@@H](CCCN=C(N)N)C(=O)N[C@@H](Cc1c[nH]c2ccccc12)C(=O)N[C@@H](CCCN=C(N)N)C(=O)N[C@@H](Cc1c[nH]c2ccccc12)C(N)=O [RWRWRW]
- MIC [47]: ≥ 45 µM
- MIC [48]: ≥ 45 µM

— DBAASP
